Data reported in patent US10371707B1, “System and methods for bilirubin analysis” (Neolight LLC, priority 2017, dated 2019).
Counter-ions that a name gives are not always drawn.

How the values were obtained:
[1] = molecular target: T1, albumin (Homo sapiens, UniProt P02768); settings: within human plasma; cited from earlier work
T1 construct: host or cells: human plasma

[2] = Cyclic voltammetry, direct electro-oxidation on screen-printed carbon electrodes; format: physicochemical; settings: for anodic peak Epa: first/characteristic anodic peak, carbon electrodes, Ag/AgCl reference, scan rate 0.1 V/s, 0.05M Tris-HCl pH 8.5
Procedure: (§1) All electrochemical experiments were performed on screen-printed carbon electrodes with an Ag/AgCl reference electrode in a 3-electrode mode of operation. Cyclic Voltammetry parameters were controlled via a computational program; scan rate: 0.1 V/s, start potential: −0.5V, switch potential: 0.9V, end potential: −0.5V.
(§2) Deionized water (resistivity 18.2MΩ cm) was used in the preparation of solutions. Bilirubin was dissolved in 0.05M sodium hydroxide to prepare 1 mM stock and gently vortexed till homogenously mixed. This stock solution was then diluted using 0.05 M Tris-HCl (pH 8.5) to the desired working concentration. […] Bromophenol blue was prepared in 0.05M Tris-HCl (pH 8.5). Conjugated bilirubin was dissolved in 0.05M Tris-HCl (pH 8.5) and mixed till homogenous. All tubes containing bilirubin were protected from light.
Regarding the detection of unbound unconjugated bilirubin, it was diluted to a physiologically relevant concentration (100 μM) and analyzed by cyclic voltammetry.

[3] = molecular target: T2, Human serum albumin (Homo sapiens, UniProt P02768); assay: Binding to albumin and displacement of bilirubin by bromophenol blue, assessed by cyclic voltammetry; settings: for binding affinity to albumin (in words): inferred from voltammetric results; for effect of binding to albumin on electrochemical oxidation of the ligand: mixed with albumin, cyclic voltammetry; for peak current of liberated unconjugated bilirubin (peak at 0.15V): unconjugated bilirubin + albumin + bromophenol blue
T2 construct: purchased Sigma Aldrich, UK
Procedure: as §1, §2
Surfactants, caffeine, sodium benzoate and fatty acids are common solubilizing agents.
As with unconjugated bilirubin, bromophenol blue was used a competitive binding ligand for the displacement of conjugated bilirubin.

T2 sequence (P02768 25-609): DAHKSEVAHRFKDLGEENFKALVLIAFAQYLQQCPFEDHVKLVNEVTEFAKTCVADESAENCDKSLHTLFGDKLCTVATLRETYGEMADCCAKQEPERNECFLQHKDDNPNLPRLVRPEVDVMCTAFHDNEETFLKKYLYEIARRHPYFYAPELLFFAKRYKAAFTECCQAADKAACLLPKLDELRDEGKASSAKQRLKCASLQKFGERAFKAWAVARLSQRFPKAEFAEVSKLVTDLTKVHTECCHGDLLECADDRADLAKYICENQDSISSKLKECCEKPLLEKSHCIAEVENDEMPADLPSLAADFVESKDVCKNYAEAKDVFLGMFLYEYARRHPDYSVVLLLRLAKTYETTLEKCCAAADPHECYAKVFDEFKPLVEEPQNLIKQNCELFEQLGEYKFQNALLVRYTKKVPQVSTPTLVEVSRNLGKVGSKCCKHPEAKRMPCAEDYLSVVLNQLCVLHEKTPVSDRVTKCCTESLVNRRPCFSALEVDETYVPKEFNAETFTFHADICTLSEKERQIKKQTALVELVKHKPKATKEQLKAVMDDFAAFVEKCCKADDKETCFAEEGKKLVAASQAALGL
T1 sequence (P02768 25-609): as above

third anodic peak ([2]; cyclic voltammetry, same set-up) [V]	secondary anodic peak ([2]; cyclic voltammetry, same set-up, for unconjugated bilirubin distinct at 50 μM and higher) [V]	SMILES	unconjugated bilirubin bound to albumin [1]	anodic peak Epa [2] [V]	displacement of conjugated bilirubin from albumin ([3]; conjugated bilirubin, albumin, bromophenol blue at 1:1:1 ratio)	displacement of unconjugated bilirubin from albumin ([3]; equal concentration ratios of unconjugated bilirubin, albumin and bromophenol blue)	binding affinity to albumin (in words) [3]	effect of binding to albumin on electrochemical oxidation of the ligand [3]	peak current of liberated unconjugated bilirubin (peak at 0.15V) ([3]; bromophenol blue concentration increased threefold) [μA]	peak current of liberated unconjugated bilirubin (peak at 0.15V) ([3]; bromophenol blue concentration increased two-fold) [μA]
–	–	C=CC1=C(C)/C(=C/c2[nH]c(Cc3[nH]c(/C=C4\NC(=O)C(C)=C4C=C)c(C)c3CCC(=O)O)c(CCC(=O)O)c2C)NC1=O [unconjugated bilirubin, Bilirubin (mixed isomers)]	roughly 99.9%	–	–	–	–	–	–	–
–	–	O=S1(=O)OC(c2cc(Br)c(O)c(Br)c2)(c2cc(Br)c(O)c(Br)c2)c2ccccc21 [bromophenol blue, 4,4′-(1,1-dioxido-3H-2,1-benzoxathiole-3,3-diyl)bis(2,6-dibromophenol)]	–	0.64	sufficiently displaced the conjugated bilirubin	no displacement of unconjugated bilirubin was observed	higher binding affinity	diminish the bromophenol blue peak at 0.64V	0.347	0.645
0.44	0.3	C=CC1=C(C)/C(=C/c2[nH]c(Cc3[nH]c(/C=C4\NC(=O)C(C)=C4C=C)c(C)c3CCC(=O)NCCS(=O)(=O)O)c(CCC(=O)NCCS(=O)(=O)O)c2C)NC1=O [conjugated bilirubin, Bilirubin conjugated ditaurate disodium salt]	–	0.15	–	–	weaker than that of unbound bilirubin	hinders oxidation of bilirubin	–	–
